According to ChEMBL document CHEMBL1667837, “Structure and property based design, synthesis and biological evaluation of γ-lactam based HDAC inhibitors” (Bioorg Med Chem Lett, 2011):

Legend:
[1] = Metabolic stability in ICR mouse liver microsomes assessed as compound remaining at 1 uM after 60 mins in presence of NADPH; type: ADME, Microsome; conditions: read-out: Stability
[2] = Metabolic stability in ICR mouse liver microsomes assessed as compound remaining at 1 uM after 60 mins in absence of NADPH; type: ADME, Microsome; conditions: read-out: Stability
LOX IMVI = assay: Cytotoxicity against human LOXIMVI cells; type: functional
[3] = Apparent permeability across human Caco2 cells; type: ADME, cell-based; conditions: Caco-2
HCT-15 = assay: Cytotoxicity against human HCT15 cells; type: functional
MDA-MB-231 = assay: Cytotoxicity against human MDA-MB-231 cells; type: functional
NUGC-3 = assay: Cytotoxicity against human NUGC3 cells; type: functional
[4] = Inhibition of HDAC by fluorescence assay
NCI-H23 = assay: Cytotoxicity against human NCI-H23 cells; type: functional
PC-3 = assay: Cytotoxicity against human PC3 cells; type: functional
ACHN = assay: Cytotoxicity against human ACHN cells; type: functional
[5] = Metabolic stability in ICR mouse liver microsomes assessed as compound remaining at 1 uM after 60 mins in presence of buffer; type: ADME, Microsome; conditions: read-out: Stability
[6] = Inhibition of HDAC assessed as increase of histone H3 acetylation
HCT-116 [7] = assay: Antitumor activity against human HCT116 cells xenografted in nude mouse assessed as inhibition of tumor growth at 30 mg/kg, ip for 20 days relative to control; type: functional; set-up: scale not given: the % may be the effect or the level left; conditions: route intraperitoneal
[8] = Clearance in BALB/c mouse at 5 mg/kg, iv; type: ADME, organism-based; set-up: dose 5 mg/kg, route intravenous; conditions: in vivo
[9] = target: T1, Protein deacetylase HDAC6 (Homo sapiens, UniProt Q9UBN7)
T1 sequence (Q9UBN7 whole entry): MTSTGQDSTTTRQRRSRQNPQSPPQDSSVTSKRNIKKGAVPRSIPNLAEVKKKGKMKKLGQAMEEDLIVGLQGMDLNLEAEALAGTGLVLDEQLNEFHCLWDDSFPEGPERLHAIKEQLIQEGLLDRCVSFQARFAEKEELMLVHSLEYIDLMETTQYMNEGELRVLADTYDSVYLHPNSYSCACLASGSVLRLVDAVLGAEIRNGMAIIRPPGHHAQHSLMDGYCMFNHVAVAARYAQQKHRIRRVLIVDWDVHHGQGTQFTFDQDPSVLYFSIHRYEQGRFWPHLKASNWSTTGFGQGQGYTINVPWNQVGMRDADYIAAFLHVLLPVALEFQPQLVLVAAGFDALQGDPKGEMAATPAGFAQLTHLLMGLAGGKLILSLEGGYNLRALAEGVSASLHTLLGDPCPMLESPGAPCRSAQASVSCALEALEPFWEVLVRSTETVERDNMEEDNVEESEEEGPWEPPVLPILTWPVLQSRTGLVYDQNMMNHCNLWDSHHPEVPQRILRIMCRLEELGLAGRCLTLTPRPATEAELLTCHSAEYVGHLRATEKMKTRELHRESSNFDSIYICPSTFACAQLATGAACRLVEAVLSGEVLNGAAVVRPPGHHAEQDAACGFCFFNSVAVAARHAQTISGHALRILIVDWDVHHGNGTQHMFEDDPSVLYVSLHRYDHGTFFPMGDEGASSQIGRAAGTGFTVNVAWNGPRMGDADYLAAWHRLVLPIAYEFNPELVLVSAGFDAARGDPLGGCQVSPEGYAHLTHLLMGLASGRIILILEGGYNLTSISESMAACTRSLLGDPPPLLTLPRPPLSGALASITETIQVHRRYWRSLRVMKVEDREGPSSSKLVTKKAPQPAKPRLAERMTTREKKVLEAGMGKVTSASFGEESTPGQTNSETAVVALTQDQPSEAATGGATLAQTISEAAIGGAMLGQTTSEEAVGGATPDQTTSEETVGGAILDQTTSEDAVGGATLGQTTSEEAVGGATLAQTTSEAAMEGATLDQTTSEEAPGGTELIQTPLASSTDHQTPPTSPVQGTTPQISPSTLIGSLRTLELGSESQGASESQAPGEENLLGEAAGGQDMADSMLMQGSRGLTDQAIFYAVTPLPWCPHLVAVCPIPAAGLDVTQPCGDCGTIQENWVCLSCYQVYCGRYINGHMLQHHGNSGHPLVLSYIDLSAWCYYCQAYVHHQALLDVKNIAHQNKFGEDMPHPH

[10] = Cmax in BALB/c mouse at 20 mg/kg, po; type: ADME, organism-based; set-up: dose 20 mg/kg, route oral; conditions: in vivo
[11] = Half life in BALB/c mouse at 5 mg/kg, iv; type: ADME, organism-based; set-up: dose 5 mg/kg, route intravenous; conditions: in vivo
[12] = Oral bioavailability in BALB/c mouse at 20 mg/kg; type: ADME, organism-based; conditions: in vivo
[13] = Tmax in BALB/c mouse at 20 mg/kg, po; type: ADME, organism-based; set-up: dose 20 mg/kg, route oral; conditions: in vivo
Histone deacetylase 1 = Histone deacetylase 1 (Homo sapiens, UniProt Q13547); assay: Inhibition of HDAC1 by fluorescence assay
[14] = Inhibition of HDAC assessed as increase of histone H4 acetylation
[15] = AUC (0 to infinity) in BALB/c mouse at 5 mg/kg, iv; type: ADME, organism-based; set-up: time infinity, dose 5 mg/kg, route intravenous; conditions: plasma
Histone deacetylase 8 = target: T2, Histone deacetylase 8 (Homo sapiens, UniProt Q9BY41); assay: Inhibition of HDAC8 by fluorescence assay
T2 sequence (Q9BY41 whole entry): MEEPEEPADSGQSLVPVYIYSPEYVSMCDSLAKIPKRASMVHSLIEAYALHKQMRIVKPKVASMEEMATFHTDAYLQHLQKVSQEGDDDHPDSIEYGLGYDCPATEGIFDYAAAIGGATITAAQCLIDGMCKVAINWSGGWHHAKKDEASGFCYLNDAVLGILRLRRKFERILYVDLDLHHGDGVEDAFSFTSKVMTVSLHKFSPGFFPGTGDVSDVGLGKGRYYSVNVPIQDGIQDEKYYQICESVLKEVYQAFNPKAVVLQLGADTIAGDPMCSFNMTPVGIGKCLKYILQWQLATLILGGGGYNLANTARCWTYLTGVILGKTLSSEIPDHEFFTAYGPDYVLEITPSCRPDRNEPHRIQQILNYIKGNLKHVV

Mus musculus = assay: Toxicity in human HCT116 cells xenografted nude mouse assessed as change in body weight at 30 mg/kg, ip for 20 days; type: organism-based, HCT-116; set-up: dose 30 mg/kg, route intraperitoneal; conditions: in vivo, 480 h
HCT-116 [16] = assay: Antitumor activity against human HCT116 cells xenografted in nude mouse assessed as reduction of tumor volume at 30 mg/kg, ip for 20 days (reference value: 369.8 mm'3); type: functional; conditions: route intraperitoneal
[17] = Volume of distribution at steady state in BALB/c mouse at 5 mg/kg, iv; type: ADME, organism-based; set-up: dose 5 mg/kg, route intravenous; conditions: in vivo, read-out: Vdss
[18] = Half life in BALB/c mouse at 20 mg/kg, po; type: ADME, organism-based; set-up: dose 20 mg/kg, route oral; conditions: in vivo
Histone deacetylase 3 = Histone deacetylase 3 (Homo sapiens, UniProt O15379)
Histone deacetylase 2 = Histone deacetylase 2 (Homo sapiens, UniProt Q92769); assay: Inhibition of HDAC2 by fluorescence assay
[19] = AUC (0 to 5 hrs) in BALB/c mouse at 20 mg/kg, po; type: ADME, organism-based; set-up: time < 4 hr, dose 20 mg/kg, route oral; conditions: plasma

Chain of Histone deacetylase 2 (Q92769 whole entry): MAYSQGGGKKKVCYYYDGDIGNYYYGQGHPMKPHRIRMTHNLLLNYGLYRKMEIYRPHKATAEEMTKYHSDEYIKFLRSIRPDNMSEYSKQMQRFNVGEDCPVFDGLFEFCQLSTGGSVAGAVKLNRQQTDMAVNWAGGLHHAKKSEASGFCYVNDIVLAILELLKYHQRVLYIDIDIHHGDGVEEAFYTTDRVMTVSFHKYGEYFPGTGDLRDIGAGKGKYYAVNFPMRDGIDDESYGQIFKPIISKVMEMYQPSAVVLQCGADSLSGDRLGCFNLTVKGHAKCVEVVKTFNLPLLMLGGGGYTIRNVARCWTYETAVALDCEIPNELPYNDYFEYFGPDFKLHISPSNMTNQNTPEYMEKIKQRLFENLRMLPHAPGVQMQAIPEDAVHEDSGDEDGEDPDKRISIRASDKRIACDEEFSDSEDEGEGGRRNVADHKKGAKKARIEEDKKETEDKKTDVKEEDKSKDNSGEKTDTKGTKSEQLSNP
Chain of Histone deacetylase 1 (Q13547 whole entry): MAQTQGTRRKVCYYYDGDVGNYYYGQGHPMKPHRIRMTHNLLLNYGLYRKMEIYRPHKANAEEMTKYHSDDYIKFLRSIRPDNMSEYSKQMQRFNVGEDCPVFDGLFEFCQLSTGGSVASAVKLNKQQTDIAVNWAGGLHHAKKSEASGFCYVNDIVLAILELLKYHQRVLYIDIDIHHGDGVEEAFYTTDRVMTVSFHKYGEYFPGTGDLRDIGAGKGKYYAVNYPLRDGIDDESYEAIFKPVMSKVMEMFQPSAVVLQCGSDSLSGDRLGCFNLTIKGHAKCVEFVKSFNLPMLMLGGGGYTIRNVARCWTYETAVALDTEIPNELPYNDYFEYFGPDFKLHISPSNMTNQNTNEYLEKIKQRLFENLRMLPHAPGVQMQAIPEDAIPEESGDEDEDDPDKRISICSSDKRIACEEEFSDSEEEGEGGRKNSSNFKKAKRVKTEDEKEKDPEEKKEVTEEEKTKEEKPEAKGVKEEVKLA
Chain of Histone deacetylase 3 (O15379 whole entry): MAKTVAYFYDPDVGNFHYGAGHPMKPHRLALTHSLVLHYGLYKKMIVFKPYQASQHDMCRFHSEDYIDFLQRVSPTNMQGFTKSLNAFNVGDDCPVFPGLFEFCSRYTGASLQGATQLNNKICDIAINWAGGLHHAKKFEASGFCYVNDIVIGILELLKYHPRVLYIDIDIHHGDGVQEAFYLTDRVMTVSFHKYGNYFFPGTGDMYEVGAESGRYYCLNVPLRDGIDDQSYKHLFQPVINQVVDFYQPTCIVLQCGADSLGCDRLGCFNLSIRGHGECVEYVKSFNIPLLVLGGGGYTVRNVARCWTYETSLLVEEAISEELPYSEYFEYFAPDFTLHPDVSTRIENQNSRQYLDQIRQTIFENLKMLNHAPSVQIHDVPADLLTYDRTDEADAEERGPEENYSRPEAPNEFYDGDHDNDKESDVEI

O=C(CCC1=CCN(CCCc2ccccc2)C1=O)NO
remaining at 1 h, 1 µM [1]: 66.6% | remaining at 1 h, 1 µM [2]: 66.3% | GI50 (LOX IMVI): 4.52 µM | Papp [3]: 9.5 ×10⁻⁶ cm/s | GI50 (HCT-15): 6.23 µM | GI50 (MDA-MB-231): 3.81 µM | GI50 (NUGC-3): 2.6 µM | IC50 [4]: 0.05 µM | GI50 (NCI-H23): 3.46 µM | GI50 (PC-3): 3.91 µM | GI50 (ACHN): 4.24 µM

O=C(CCC1=CCCN(CCCc2ccc3ccccc3c2)C1=O)NO
GI50 (MDA-MB-231): 4.7 µM | IC50 [4]: 0.14 µM | GI50 (PC-3): 3.77 µM | GI50 (ACHN): 5.78 µM

O=C(CCC1=CCCN(CCCc2ccccc2)C1=O)NO
Papp [3]: 17.5 ×10⁻⁶ cm/s | IC50 [4]: 0.27 µM | GI50 (PC-3): 6.98 µM

O=C(CCC1=CCCN(Cc2ccc3ccccc3c2)C1=O)NO
GI50 (LOX IMVI): 30 µM | GI50 (HCT-15): 6.82 µM | GI50 (MDA-MB-231): 4.07 µM | IC50 [4]: 30 µM | GI50 (NCI-H23): 30 µM | GI50 (PC-3): 30 µM | GI50 (ACHN): 6.09 µM

O=C(CCC1=CCCN(CCc2ccccc2)C1=O)NO
GI50 (LOX IMVI): 5.84 µM | GI50 (HCT-15): 8.16 µM | GI50 (MDA-MB-231): 1.62 µM | IC50 [4]: 0.35 µM | GI50 (NCI-H23): 30 µM | GI50 (PC-3): 9.84 µM | GI50 (ACHN): 7.76 µM

O=C(CCC1=CCN(CCc2ccccc2)C1=O)NO
GI50 (LOX IMVI): 30 µM | GI50 (HCT-15): 5.37 µM | GI50 (MDA-MB-231): 0.99 µM | IC50 [4]: 0.12 µM | GI50 (NCI-H23): 4.29 µM | GI50 (PC-3): 4.43 µM | GI50 (ACHN): 1.08 µM

O=C(CCC1=CCN(Cc2ccc3ccccc3c2)C1=O)NO
GI50 (LOX IMVI): 7.98 µM | GI50 (HCT-15): 3.54 µM | GI50 (MDA-MB-231): 1.22 µM | IC50 [4]: 0.15 µM | GI50 (NCI-H23): 5.19 µM | GI50 (PC-3): 4.88 µM | GI50 (ACHN): 1.39 µM

O=C(CCC1=CCCN(Cc2ccccc2)C1=O)NO
GI50 (LOX IMVI): 30 µM | GI50 (HCT-15): 30 µM | GI50 (MDA-MB-231): 4.26 µM | IC50 [4]: 0.67 µM | GI50 (NCI-H23): 30 µM | GI50 (PC-3): 30 µM | GI50 (ACHN): 30 µM

O=C(CCC1=CCN(CCc2cccc3ccccc23)C1=O)NO
remaining at 1 h, 1 µM [1]: 3.9% | remaining at 1 h, 1 µM [2]: 15.1% | GI50 (LOX IMVI): 3.71 µM | GI50 (HCT-15): 6.78 µM | GI50 (MDA-MB-231): 4.76 µM | GI50 (NUGC-3): 5.23 µM | IC50 [4]: 0.36 µM | GI50 (NCI-H23): 5.13 µM | GI50 (PC-3): 5.76 µM | GI50 (ACHN): 6.41 µM

O=C(CCC1=CCN(CCc2ccc3ccccc3c2)C1=O)NO
remaining at 1 h, 1 µM [1]: 29.7% | remaining at 1 h, 1 µM [2]: 46.6% | GI50 (LOX IMVI): 0.61 µM | GI50 (HCT-15): 0.84 µM | GI50 (MDA-MB-231): 0.59 µM | GI50 (NUGC-3): 0.8 µM | IC50 [4]: 0.05 µM | GI50 (NCI-H23): 0.5 µM | GI50 (PC-3): 0.34 µM | GI50 (ACHN): 0.63 µM

O=C(CCC1=CCN(Cc2ccccc2)C1=O)NO
GI50 (LOX IMVI): 30 µM | GI50 (HCT-15): 30 µM | GI50 (MDA-MB-231): 4.73 µM | IC50 [4]: 0.8 µM | GI50 (NCI-H23): 30 µM | GI50 (PC-3): 30 µM | GI50 (ACHN): 30 µM

O=C(CCC1=CCCN(CCc2cccc3ccccc23)C1=O)NO
IC50 [4]: 0.32 µM

O=C(CCC1=CCCN(CCc2ccc3ccccc3c2)C1=O)NO
remaining at 1 h, 1 µM [1]: 10.3% | remaining at 1 h, 1 µM [2]: 31% | GI50 (LOX IMVI): 0.56 µM | remaining at 1 h, 1 µM [5]: 99.1% | Papp [3]: 19.1 ×10⁻⁶ cm/s | GI50 (HCT-15): 0.79 µM | GI50 (MDA-MB-231): 0.45 µM | GI50 (NUGC-3): 0.42 µM | IC50 [4]: 0.04 µM | GI50 (NCI-H23): 0.54 µM | GI50 (PC-3): 0.56 µM | GI50 (ACHN): 0.61 µM

O=C(CCC1=CCN(CCCc2ccc3ccccc3c2)C1=O)NO
remaining at 1 h, 1 µM [1]: 43.1% | remaining at 1 h, 1 µM [2]: 71.1% | inhibition [6]: Dose-dependent effect | Activity (HCT-116 [7]): 34.4% | GI50 (LOX IMVI): 0.82 µM | remaining at 1 h, 1 µM [5]: 97.2% | Papp [3]: 16.3 ×10⁻⁶ cm/s | clearance [8]: 93.7 mL/min/kg | IC50 [9]: 0.8 µM | GI50 (HCT-15): 0.78 µM | Cmax [10]: 813 ng/mL | half-life [11]: 9 min | GI50 (MDA-MB-231): 0.65 µM | GI50 (NUGC-3): 0.61 µM | bioavailability [12]: 8.7% | Tmax [13]: 15 min | IC50 (Histone deacetylase 1): 25.6 µM | inhibition [14]: Dose-dependent effect | AUC(0-inf) [15]: 890 ng·h/mL | IC50 [4]: 0.01 µM | IC50 (Histone deacetylase 8): 120 µM | GI50 (NCI-H23): 0.61 µM | Activity (Mus musculus): Non-toxic | Activity (HCT-116 [16]): 242.2 mm3 | GI50 (PC-3): 1.09 µM | Vd [17]: 0.85 L/kg | half-life [18]: 38.4 min | IC50 (Histone deacetylase 3): 80.1 µM | GI50 (ACHN): 0.65 µM | IC50 (Histone deacetylase 2): 16.4 µM | AUC(0-t) at 4 h [19]: 309 ng·h/mL

CC(/C=C/C(=O)NO)=C\[C@@H](C)C(=O)c1ccc(N(C)C)cc1
inhibition [6]: Dose-dependent effect | inhibition [14]: Dose-dependent effect
